In one assay the test system is T-cell. Description: IL-2 secretion from T-cells stimulated with anti-CD3 antibody alone (Biological Example 2). To be noted: Homo sapiens, T-cell. It counts as cell-based, human.
The target in a further assay is Cbl-b (Homo sapiens, UniProt Q13191). In words: Cbl-b inhibition assay (Cbl-b activity assay, FRET, Biological Example 1; 100 mM NaCl, 60 nM Src kinase). It counts as biochemical. To be noted: upper bound stated in text lists; read-out: IC50 values in the Cbl-b inhibition assay of Biological Example 1. In short, it runs like this: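 FRET read-out: loss of signal marks inhibition. Mix = biotin-Avi-Cbl-b (N-term), Src kinase, UbcH5B-Ub(Bodipy-FL, irreversible conjugate), streptavidin-Tb, assay buffer.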
Chain of Cbl-b (Q13191 36-427): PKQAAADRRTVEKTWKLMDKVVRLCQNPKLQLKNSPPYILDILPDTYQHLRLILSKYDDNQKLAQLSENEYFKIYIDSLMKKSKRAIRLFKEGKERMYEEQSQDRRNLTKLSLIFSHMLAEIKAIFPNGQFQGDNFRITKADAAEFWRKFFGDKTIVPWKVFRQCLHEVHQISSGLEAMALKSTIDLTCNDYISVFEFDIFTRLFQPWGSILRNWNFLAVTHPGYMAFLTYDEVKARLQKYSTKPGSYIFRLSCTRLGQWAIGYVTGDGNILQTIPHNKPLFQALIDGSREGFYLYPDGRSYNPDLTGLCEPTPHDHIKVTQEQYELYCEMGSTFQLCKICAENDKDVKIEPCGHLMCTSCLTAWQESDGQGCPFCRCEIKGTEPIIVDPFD

A further assay addresses Cbl-b (residues 36-427) (Homo sapiens, UniProt Q13191). Description: Cbl-b binding assay (SPR, Biacore T200). Conditions: 20° C., 1:1 binding model. The method, boiled down: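 NeutrAvidin capture chip, 20° C; 50 s injections at 50 μl/min, 90-180 s dissociation; 0.3 M NaCl regeneration. Asterisked column: 50 mM NaCl buffer and 30 nM Src kinase in place of 100 mM NaCl and 60 nM Src kinase. 1:1 fit.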
On the technique in general: In SPR one partner is held on a chip, and binding of the other changes the refractive index at the surface.

Where [1] appears, read: 1 μM Cbl-b inhibitor, fold change over baseline (anti-CD3/anti-CD28 stimulated T-cells without inhibitor), read-out: IL-2 secretion Anti-CD3 stimulation.

The values that follow come from patent US20220324835A1 (Nurix Therapeutics, Inc., priority 2018, published 2022).

Read-outs that look alike come from different tables or passages of the source.

Chain of Cbl-b (residues 36-427) (Q13191 36-427): as above

Broadly, the IC50 is the point on the concentration scale where inhibition reaches its midpoint. On to `C[C@H](c1cc2c(c(C(F)(F)F)c1)CN(c1cccc(C3([C@H](F)c4nncn4C)COC3)c1)C2=O)N1CCC2(CC2)C1` (stereo in doubt) [Example 575, 6-((R)-1-(5-Azaspiro[2.4]heptan-5-yl)ethyl)-2-(3-(3-((S)-fluoro(4-methyl-4H-1,2,4-triazol-3-yl)methyl)oxetan-3-yl)phenyl)-4-(trifluoromethyl)isoindolin-1-one], for which the fold induction at 1 µM in the assay with T-cell (setting [1]) is more than 0.201. Further, the IC50 on Cbl-b was not above 100 nM.
The term Kd denotes the free concentration of one partner at which half of the binding sites on the other are occupied at equilibrium, for simple one-to-one binding. A higher Kd goes with a looser complex. At Cbl-b (residues 36-427), `Cc1n[nH]c(C)c1-c1cc2c(c(C(F)(F)F)c1)CN(c1cccc(C3(Cc4nncn4C)COC3)c1)C2=O` [Compound 385, 6-(3,5-dimethyl-1H-pyrazol-4-yl)-2-(3-{3-[(4-methyl-4H-1,2,4-triazol-3-yl)methyl]oxetan-3-yl}phenyl)-4-(trifluoromethyl)-2,3-dihydro-1H-isoindol-1-one] displayed an equilibrium dissociation constant (Kd) of less than 100 nM. For the same compound, the IC50 at Cbl-b was not above 100 nM.
As for `CN1CC2CCC(C1)N2c1cc2c(c(C(F)(F)F)c1)CN(c1cccc(C3(Cc4nncn4C)COC3)c1)C2=O` [Compound 386, 2-(3-(3-((4-Methyl-4H-1,2,4-triazol-3-yl)methyl)oxetan-3-yl)phenyl)-6-(3-methyl-3,8-diazabicyclo[3.2.1]octan-8-yl)-4-(trifluoromethyl)isoindolin-1-one], in the assay on T-cell (read-out: IL-2 secretion, Anti-CD3 stimulation, fold change over baseline), the fold induction at 1 µM is more than 0.201. The IC50 at Cbl-b was not above 100 nM.
Turning to `C[C@H](Cc1nncn1C)c1cccc(N2Cc3c(cc(CN4CC(O)C4)cc3C(F)(F)F)C2=O)c1` [Compound 393, (R)-6-((3-hydroxyazetidin-1-yl)methyl)-2-(3-(1-(4-methyl-4H-1,2,4-triazol-3-yl)propan-2-yl)phenyl)-4-(trifluoromethyl)isoindolin-1-one], the Kd on Cbl-b (residues 36-427) is less than 100 nM. Moreover, the IC50 at Cbl-b is not above 100 nM.
Taken in the same sequence, the figures for `C[C@H](Cc1nncn1C)c1cccc(N2Cc3c(cc(CN4CC(C)(O)C4)cc3C(F)(F)F)C2=O)c1` [Compound 397] were less than 100 nM and not above 100 nM.
Taken in the same sequence, the figures for `C[C@H](Cc1nncn1C)c1cccc(N2Cc3c(cc(CN4CC[C@](C)(O)C4)cc3C(F)(F)F)C2=O)c1` [Compound 398, 6-(((S)-3-hydroxy-3-methylpyrrolidin-1-yl)methyl)-2-(3-((R)-1-(4-methyl-4H-1,2,4-triazol-3-yl)propan-2-yl)phenyl)-4-(trifluoromethyl)isoindolin-1-one] were less than 100 nM and not above 100 nM.
`C[C@H](Cc1nncn1C)c1cccc(N2Cc3c(cc(CN4CC[C@H](F)C4)cc3C(F)(F)F)C2=O)c1` [Compound 399, 6-(((S)-3-fluoropyrrolidin-1-yl)methyl)-2-(3-((R)-1-(4-methyl-4H-1,2,4-triazol-3-yl)propan-2-yl)phenyl)-4-(trifluoromethyl)isoindolin-1-one] registered a Kd at Cbl-b (residues 36-427) of less than 100 nM. For the same compound, at Cbl-b, the IC50 is not above 100 nM.
With `Cn1cnnc1CC1(c2cccc(N3Cc4c(cc(CN5CC[C@H](F)C5)cc4C(F)(F)F)C3=O)c2)COC1` [Compound 410, 6-{[(3S)-3-fluoropyrrolidin-1-yl]methyl}-2-(3-{3-[(4-methyl-4H-1,2,4-triazol-3-yl)methyl]oxetan-3-yl}phenyl)-4-(trifluoromethyl)-2,3-dihydro-1H-isoindol-1-one], the IC50 at Cbl-b was not above 100 nM.
Still for that read-out and setting: the figure for `C[C@@H](c1cc2c(c(C(F)(F)F)c1)CN(c1cccc(C3(Cc4nncn4C)COC3)c1)C2=O)N1CC[C@H](F)C1` [Compound 412, 6-((S)-1-((S)-3-fluoropyrrolidin-1-yl)ethyl)-2-(3-(3-((4-methyl-4H-1,2,4-triazol-3-yl)methyl)oxetan-3-yl)phenyl)-4-(trifluoromethyl)isoindolin-1-one] is not above 100 nM; for `C[C@H](c1cc2c(c(C(F)(F)F)c1)CN(c1cccc(C3(Cc4nncn4C)COC3)c1)C2=O)N1CC[C@H](F)C1` [Compound 413, 6-((R)-1-((S)-3-fluoropyrrolidin-1-yl)ethyl)-2-(3-(3-((4-methyl-4H-1,2,4-triazol-3-yl)methyl)oxetan-3-yl)phenyl)-4-(trifluoromethyl)isoindolin-1-one] it is not above 100 nM.
`Cn1cnnc1CC1(c2cccc(N3Cc4c(cc(CN5CC(F)C5)cc4C(F)(F)F)C3=O)c2)COC1` [Compound 415, 6-((3-fluoroazetidin-1-yl)methyl)-2-(3-(3-((4-methyl-4H-1,2,4-triazol-3-yl)methyl)oxetan-3-yl)phenyl)-4-(trifluoromethyl)isoindolin-1-one]: the IC50 at Cbl-b was not above 100 nM.
The same measure, in the same setting: the figure for `Cn1cnnc1CC1(c2cccc(N3Cc4c(cc(CN5CC[C@@H](C#N)C5)cc4C(F)(F)F)C3=O)c2)COC1` [Compound 421, (R)-1-((2-(3-(3-((4-methyl-4H-1,2,4-triazol-3-yl)methyl)oxetan-3-yl)phenyl)-3-oxo-7-(trifluoromethyl)isoindolin-5-yl)methyl)pyrrolidine-3-carbonitrile] is not above 100 nM; for `Cn1cnnc1CC1(c2cccc(N3Cc4c(cc(CN5CC[C@H](C#N)C5)cc4C(F)(F)F)C3=O)c2)COC1` [Compound 422, (S)-1-((2-(3-(3-((4-methyl-4H-1,2,4-triazol-3-yl)methyl)oxetan-3-yl)phenyl)-3-oxo-7-(trifluoromethyl)isoindolin-5-yl)methyl)pyrrolidine-3-carbonitrile] it is not above 100 nM.
Same read-out and setting: in the case of `Cn1cnnc1CC1(c2cccc(N3Cc4c(cc(CN5C[C@H]6C[C@H]6C5)cc4C(F)(F)F)C3=O)c2)COC1` [Compound 429, 6-(((1R,5S)-3-azabicyclo[3.1.0]hexan-3-yl)methyl)-2-(3-(3-((4-methyl-4H-1,2,4-triazol-3-yl)methyl)oxetan-3-yl)phenyl)-4-(trifluoromethyl)isoindolin-1-one] it was not above 100 nM.
Same read-out and setting: in the case of `Cn1cnnc1CC1(c2cccc(N3Cc4c(cc(CN5CCC[C@H](F)C5)cc4C(F)(F)F)C3=O)c2)COC1` [Compound 432, 6-{[(3S)-3-fluoropiperidin-1-yl]methyl}-2-(3-{3-[(4-methyl-4H-1,2,4-triazol-3-yl)methyl]oxetan-3-yl}phenyl)-4-(trifluoromethyl)-2,3-dihydro-1H-isoindol-1-one] it was not above 100 nM.
For `Cn1cnnc1C(F)(F)[C@](C)(F)c1cccc(N2Cc3c(cc(N4CCNCC4)cc3C(F)(F)F)C2=O)c1` [Compound 442, (R)-6-(Piperazin-1-yl)-2-(3-(1,1,2-trifluoro-1-(4-methyl-4H-1,2,4-triazol-3-yl)propan-2-yl)phenyl)-4-(trifluoromethyl)isoindolin-1-one], the IC50 at Cbl-b is not above 100 nM.
On the same count and under the same terms, the figure for `Cn1cnnc1C(F)(F)[C@](C)(F)c1cccc(N2Cc3c(cc(CN4CC[C@@H](C#N)C4)cc3C(F)(F)F)C2=O)c1` [Compound 455, (R)-1-((3-oxo-2-(3-((R)-1,1,2-trifluoro-1-(4-methyl-4H-1,2,4-triazol-3-yl)propan-2-yl)phenyl)-7-(trifluoromethyl)isoindolin-5-yl)methyl)pyrrolidine-3-carbonitrile] is not above 100 nM.
Still for that read-out and setting: the figure for `Cn1cnnc1CC1(c2cccc(N3Cc4c(cc(CN5CC6(CC6)C5)cc4C(F)(F)F)C3=O)c2)COC1` [Compound 487, 6-{5-azaspiro[2.3]hexan-5-ylmethyl}-2-(3-{3-[(4-methyl-1,2,4-triazol-3-yl)methyl]oxetan-3-yl}phenyl)-4-(trifluoromethyl)-3H-isoindol-1-one] is not above 100 nM; for `Cn1cnnc1CC1(c2cccc(NC(=O)c3cc(CN4CCC5(CC5)C4)cc(C4CC4)n3)c2)COC1` [Compound 519, 4-((5-azaspiro[2.4]heptan-5-yl)methyl)-6-cyclopropyl-N-(3-(3-((4-methyl-4H-1,2,4-triazol-3-yl)methyl)oxetan-3-yl)phenyl)picolinamide] it is not above 100 nM; for `Cn1cnnc1CC1(c2cccc(N3Cc4c(cc(CN5CCC6(CC6)C5)cc4C(F)(F)F)C3=O)c2)COC1` [Compound 520, 6-((5-azaspiro[2.4]heptan-5-yl)methyl)-2-(3-(3-((4-methyl-4H-1,2,4-triazol-3-yl)methyl)oxetan-3-yl)phenyl)-4-(trifluoromethyl)isoindolin-1-one] it is not above 100 nM.
Still for that read-out and setting: the figure for `C[C@@H](c1cc2c(c(C(F)(F)F)c1)CN(c1cccc(C3(Cc4nncn4C)COC3)c1)C2=O)N1C[C@H]2C[C@H]2C1` [Compound 541a, 6-((1S)-1-(3-azabicyclo[3.1.0]hexan-3-yl)ethyl)-2-(3-(3-((4-methyl-4H-1,2,4-triazol-3-yl)methyl)oxetan-3-yl)phenyl)-4-(trifluoromethyl)isoindolin-1-one] is not above 100 nM; for `C[C@H](c1cc2c(c(C(F)(F)F)c1)CN(c1cccc(C3(Cc4nncn4C)COC3)c1)C2=O)N1CCC(C)(F)CC1` [Example 553b, (R)-6-(1-(4-fluoro-4-methylpiperidin-1-yl)ethyl)-2-(3-(3-((4-methyl-4H-1,2,4-triazol-3-yl)methyl)oxetan-3-yl)phenyl)-4-(trifluoromethyl)isoindolin-1-one] it is not above 100 nM.
With `C[C@@H]1CN(Cc2cc3c(c(C(F)(F)F)c2)CN(c2cccc(C4(Cc5nncn5C)COC4)c2)C3=O)CCO1` [Example 663b, (R)-2-(3-(3-((4-methyl-4H-1,2,4-triazol-3-yl)methyl)oxetan-3-yl)phenyl)-6-((2-methylmorpholino)methyl)-4-(trifluoromethyl)isoindolin-1-one], in the assay on T-cell (setting [1]), the fold induction at 1 µM is more than 0.201. For the same compound, at Cbl-b, the IC50 was not above 100 nM.
